From ChEMBL document CHEMBL1212738, “Phenotypic and genotypic characterization of Enterobacteriaceae with decreased susceptibility to carbapenems: results from large hospital-based surveillance studies in China” (2010)

How the values were obtained:
Klebsiella pneumoniae [1] = assay: Antimicrobial activity against carbapenem-resistant Klebsiella pneumoniae PU8 deficient in SHV-11, DHA-1, aac(6')-Ib-cr, ompK35/36 by CLSI method; assay type: functional
Klebsiella pneumoniae [2] = assay: Antimicrobial activity against carbapenem-resistant Klebsiella pneumoniae SZ61 deficient in TEM-1, SHV-1a, CMY-2, ompK35/36 by CLSI method; assay type: functional
Klebsiella pneumoniae [3] = assay: Antimicrobial activity against Klebsiella pneumoniae ZJ71T expressing KPC-2 by CLSI method; assay type: functional
Enterobacter cloacae [4] = assay: Antimicrobial activity against carbapenem-resistant Enterobacter cloacae NJ90 deficient in CTX-M-14, ompC/F by CLSI method; assay type: functional
Escherichia coli [5] = assay: Antimicrobial activity against carbapenem-resistant Escherichia coli PU43 deficient in TEM-1, CTX-M-14, aac(6')-Ib, ompC/F by CLSI method; assay type: functional
Escherichia coli [6] = assay: Antimicrobial activity against Escherichia coli ZJ87 expressing KPC-2, TEM-1, ompC by CLSI method; assay type: functional
Klebsiella pneumoniae [7] = assay: Antimicrobial activity against Klebsiella pneumoniae FZ49T expressing IMP-8, TEM-1, CTX-M-14, qnrB2, aac(6')-Ib by CLSI method; assay type: functional
Klebsiella pneumoniae [8] = assay: Antimicrobial activity against Klebsiella pneumoniae WH76 expressing IMP-4, TEM-1, SHV-14, CTX-M-3, qnrS1 by CLSI method; assay type: functional
Klebsiella pneumoniae [9] = assay: Antimicrobial activity against carbapenem-resistant Klebsiella pneumoniae CY75 deficient in SHV-11, DHA-1, ompK35/36 by CLSI method; assay type: functional
Klebsiella pneumoniae [10] = assay: Antimicrobial activity against carbapenem-resistant Klebsiella pneumoniae XJ81 deficient in TEM-1, SHV-12, DHA-1, aac(6')-Ib, ompK35/36 by CLSI method; assay type: functional
Enterobacter cloacae [11] = assay: Antimicrobial activity against carbapenem-resistant Enterobacter cloacae RJ94 deficient in IMP-4, TEM-1, CTX-M-3, ompC by CLSI method; assay type: functional
Escherichia coli [12] = assay: Antimicrobial activity against carbapenem-resistant Escherichia coli PU102 deficient in TEM-1, CTX-M-14, CMY-2, aac(6')-Ib, ompC DEc, ompF by CLSI method; assay type: functional
Klebsiella pneumoniae [13] = assay: Antimicrobial activity against carbapenem-resistant Klebsiella pneumoniae PU105 deficient TEM-1, SHV-12, CTX-M-14, DHA-1, qnrB10/B4-like, aac(6')-Ib-cr, ompK35/36 by CLSI method; assay type: functional
Klebsiella aerogenes [14] = assay: Antimicrobial activity against carbapenem-resistant Enterobacter aerogenes WH85 deficient in TEM-1, CTX-M-3, ompC/F by CLSI method; assay type: functional
Klebsiella pneumoniae [15] = assay: Antimicrobial activity against carbapenem-resistant Klebsiella pneumoniae PU104 deficient in TEM-1, SHV-11, CTX-M-15, qnrS1, ompK35/36 by CLSI method; assay type: functional
Escherichia coli [16] = assay: Antimicrobial activity against Escherichia coli C600 transconjugant GZ66T expressing SHV-11, DHA-1 by CLSI method
Klebsiella pneumoniae [17] = assay: Antimicrobial activity against carbapenem-resistant Klebsiella pneumoniae SX67 deficient in SHV-2, CTX-M-14, DHA-1, qnrB6/S1, aac(6')-Ib-cr, ompK35/36 by CLSI method; assay type: functional
Citrobacter freundii [18] = assay: Antimicrobial activity against Citrobacter freundii SZ63T expressing IMP-4, qnrS1by CLSI method; assay type: functional
Enterobacter cloacae [19] = assay: Antimicrobial activity against carbapenem-resistant Enterobacter cloacae NJ88 deficient in CTX-M-14, ompC/F by CLSI method; assay type: functional
Klebsiella pneumoniae [20] = assay: Antimicrobial activity against carbapenem-resistant Klebsiella pneumoniae ZJ18 deficient in KPC-2, SHV-28, DHA-1, ompK35 by CLSI method; assay type: functional
Klebsiella pneumoniae [21] = assay: Antimicrobial activity against Klebsiella pneumoniae CY1T expressing SHV-11, DHA-1 by CLSI method; assay type: functional
Escherichia coli [22] = assay: Antimicrobial activity against Escherichia coli ZJ86T expressing KPC-2 by CLSI method; assay type: functional
Klebsiella pneumoniae [23] = assay: Antimicrobial activity against Klebsiella pneumoniae ZJ99 expressing KPC-2, CTX-M-3, qnrS1, ompK35 DE by CLSI method; assay type: functional
Klebsiella pneumoniae [24] = assay: Antimicrobial activity against carbapenem-resistant Klebsiella pneumoniae ZJ71 deficient in KPC-2, TEM-1, SHV-11, CTX-M-14, ompK35 by CLSI method; assay type: functional
Klebsiella pneumoniae [25] = assay: Antimicrobial activity against Klebsiella pneumoniae ZJ68T expressing CTX-M-15 by CLSI method; assay type: functional
Citrobacter freundii [26] = assay: Antimicrobial activity against Citrobacter freundii RJ78 expressing CMY-2, qnrA1, aac(6')-Ib-cr, ompC by CLSI method; assay type: functional
Escherichia coli [27] = assay: Antimicrobial activity against Escherichia coli HX74T expressing CTX-M-3 by CLSI method; assay type: functional
Escherichia coli [28] = assay: Antimicrobial activity against Escherichia coli C600 transconjugant WH77T expressing IMP-4, TEM-1, CTX-M-3, qnrS1 by CLSI method
Enterobacter cloacae [29] = assay: Antimicrobial activity against carbapenem-resistant Enterobacter cloacae GX24 deficient in TEM-1, DHA-1, aac(6')-Ib, ompC by CLSI method; assay type: functional
Klebsiella pneumoniae [30] = assay: Antimicrobial activity against carbapenem-resistant Klebsiella pneumoniae GZ84 deficient in SHV-11, aac(6')-Ib-cr, ompK35 by CLSI method; assay type: functional
Enterobacter cloacae [31] = assay: Antimicrobial activity against carbapenem-resistant Enterobacter cloacae WH103 deficient in IMP-4, TEM-1, CTX-M-3, qnrS1, ompC by CLSI method; assay type: functional
Enterobacter cloacae [32] = assay: Antimicrobial activity against carbapenem-resistant Enterobacter cloacae SZ92 deficient in IMP-4, TEM-1, CTX-M-14, DHA-1, qnrB10/B4-like, aac(6')-Ib, ompC by CLSI method; assay type: functional
Escherichia coli [33] = assay: Antimicrobial activity against Escherichia coli PU101T expressing CMY-2 by CLSI method; assay type: functional
Citrobacter freundii [34] = assay: Antimicrobial activity against Citrobacter freundii SZ62 expressing IMP-4, TEM-1, CMY-2, qnrS1, aac(6')-Ib-cr by CLSI method; assay type: functional
Klebsiella pneumoniae [35] = assay: Antimicrobial activity against carbapenem-resistant Klebsiella pneumoniae FZ49 deficient in IMP-8, TEM-1, SHV-11, CTX-M-14, qnrB2, aac(6')-Ib, ompK35/36 by CLSI method; assay type: functional
Klebsiella aerogenes [36] = assay: Antimicrobial activity against carbapenem-resistant Enterobacter aerogenes PU41 deficient in CTX-M-14, DHA-1, qnrS1, ompC DEc, ompF by CLSI method; assay type: functional
Escherichia coli [37] = assay: Antimicrobial activity against carbapenem-resistant Escherichia coli HX74 deficient in TEM-1, CTX-M-14, CTX-M-3, aac(6')-Ibcr, ompC/F by CLSI method; assay type: functional
Escherichia coli [38] = assay: Antimicrobial activity against Escherichia coli PU60T expressing CMY-2 by CLSI method; assay type: functional
Klebsiella pneumoniae [39] = assay: Antimicrobial activity against carbapenem-resistant Klebsiella pneumoniae GZ83 deficient in SHV-11, CTX-M-14, ompK35/36 by CLSI method; assay type: functional
Escherichia coli [40] = assay: Antimicrobial activity against Escherichia coli C600 transconjugant WH76T expressing IMP-4, TEM-1, CTX-M-3, qnrS1 by CLSI method

Measured: MIC

C[C@@H](O)[C@H]1C(=O)N2C(C(=O)O)=C(S[C@@H]3CN[C@H](C(=O)Nc4cccc(C(=O)O)c4)C3)[C@H](C)[C@H]12
0.25 µg/mL: Escherichia coli [33]
4 µg/mL: Klebsiella pneumoniae [3] | Klebsiella pneumoniae [7] | Citrobacter freundii [18] | Escherichia coli [28] | Citrobacter freundii [34] | Klebsiella pneumoniae [35]
128 µg/mL: Enterobacter cloacae [4] | Klebsiella pneumoniae [13] | Enterobacter cloacae [19] | Klebsiella pneumoniae [39]
0.064 µg/mL: Klebsiella pneumoniae [25] | Escherichia coli [27] | Escherichia coli [38]
0.008 µg/mL: Escherichia coli [16] | Klebsiella pneumoniae [21]
32 µg/mL: Klebsiella pneumoniae [1] | Escherichia coli [5] | Enterobacter cloacae [11] | Klebsiella pneumoniae [17] | Enterobacter cloacae [31] | Enterobacter cloacae [32]
64 µg/mL: Klebsiella pneumoniae [2] | Klebsiella pneumoniae [9] | Klebsiella pneumoniae [10] | Escherichia coli [12] | Klebsiella pneumoniae [15] | Klebsiella aerogenes [36]
8 µg/mL: Klebsiella pneumoniae [23] | Citrobacter freundii [26] | Klebsiella pneumoniae [30]
2 µg/mL: Klebsiella pneumoniae [8] | Escherichia coli [40]
16 µg/mL: all other assays above

C[C@@H](O)[C@H]1C(=O)N2C(C(=O)O)=C(SCCNC=N)C[C@H]12 [IMIPENEM ANHYDROUS]
16 µg/mL: Klebsiella pneumoniae [1] | Klebsiella pneumoniae [2] | Enterobacter cloacae [4] | Escherichia coli [12] | Enterobacter cloacae [19] | Klebsiella pneumoniae [20] | Klebsiella pneumoniae [23] | Klebsiella pneumoniae [24]
0.5 µg/mL: Escherichia coli [16] | Klebsiella pneumoniae [25] | Escherichia coli [38]
1 µg/mL: Klebsiella pneumoniae [30]
0.25 µg/mL: Klebsiella pneumoniae [21] | Escherichia coli [33]
4 µg/mL: Klebsiella pneumoniae [7] | Klebsiella pneumoniae [17] | Citrobacter freundii [18] | Escherichia coli [28] | Enterobacter cloacae [29] | Citrobacter freundii [34] | Escherichia coli [37] | Escherichia coli [40]
2 µg/mL: Klebsiella pneumoniae [8] | Klebsiella pneumoniae [15]
32 µg/mL: Klebsiella pneumoniae [9] | Klebsiella pneumoniae [13] | Klebsiella aerogenes [36] | Klebsiella pneumoniae [39]
not listed: Escherichia coli [27]
8 µg/mL: all other assays above
